These results are taken from patent US20260159618A1, “COMPOUND, POLYMERIZABLE COMPOSITION, POLYMER, HOLOGRAPHIC RECORDING MEDIUM, OPTICAL MATERIAL, AND OPTICAL COMPONENT” (Mitsubishi Chemical Corporation, priority 2022, published 2026).

Series [1] is described as follows: Refractive index measurement of polymerizable monomer (Kalnew precision refractometer). Conditions: for Refractive Index: 23° C., helium lamp d-line (587.6 nm), calculated for 100% by mass from calibration curve of 10 and 20% by mass test solutions; for Refractive Index (dash symbol): sample not suitable for refractive index measurement. Set-up: key to Refractive Index (dash symbol): ⊚: 0.019 or more; ◯: 0.015 or more and less than 0.019; Δ: 0.010 or more and less than 0.015; x: less than 0.010; —: impossible to measure. It counts as physicochemical. Here is the method:
The refractive index of the compound M-1 was measured using the following method. The refractive indexes of the polymerizable monomers produced in the Examples and Comparative Examples were also measured using the same method.
A test solution was prepared by dissolving the sample in a mixed solution of 3-phenoxybenzyl acrylate and trimethylolpropane trimethacrylate in a mass ratio of 4:1 to obtain the specified concentration.
Two types of test solutions were prepared, with sample concentrations of 10% by mass and 20% by mass.
The refractive index of each test solution was measured using a Kalnew precision refractometer (manufactured by Shimadzu Corporation, product name: KPR-2000). The temperature of the test solution was 23° C., and the measurement wavelength was helium lamp d-line (587.6 nm). Based on the measurement results, a calibration curve showing the correlation between sample concentration and refractive index was created, and the refractive index when the sample concentration was 100% by mass was calculated from the obtained calibration curve, and was taken as the refractive index of the sample.

Series [2] can be described thus: Storage stability of the TSS-100 solution, visual observation. It counts as physicochemical. Details: key: ∘: completely dissolved; Δ: cloudy; x: solid remaining in solution. Particulars: solution in Duranate TSS-100 stored at room temperature for 10 days, visually observed. Here is the method:
(§1) When 0.63 g of polymerizable monomers M-1 to M-11 and R-1 to R-4 were dissolved in 2.53 g of Duranate (registered trademark) TSS-100, the state of the solution was visually observed and the solubility was evaluated as ∘ (completely dissolved), Δ (cloudy), or x (solid remaining in solution). In addition, the state of each solution was visually observed when it was stored at room temperature for 10 days and the storage stability was evaluated as ∘ (completely dissolved), Δ (cloudy), or x (solid remaining in solution).

The nature of series [3]: Solubility in Duranate TSS-100, visual observation. In kind it is physicochemical. Conditions: 0.63 g monomer dissolved in 2.53 g Duranate TSS-100, visually observed. Here is the method:
as §1

The conditions of series [4]: prior-art compounds, background art; cited from earlier work.

SMILES strings stand for the structures. Like-named read-outs stand apart in the source and are kept apart here.

Consider `C=CC(=O)OCCNC(=O)Oc1c(-c2cc3ccccc3c3ccccc23)cc(-c2cc3ccccc3c3ccccc23)cc1-c1cc2ccccc2c2ccccc12` [Compound M-4], for which the “Refractive Index” value in series [1] was 1.6894. The “Storage Stability” value in series [2] is “◯”. Moreover, in series [3], the Solubility result is “◯”.
With `C=CC(=O)OCCCCOc1c(-c2cccc3c2sc2ccccc23)cc(-c2cccc3c2sc2ccccc23)cc1-c1cccc2c1sc1ccccc12` [Compound R-4, reference compound], the “Refractive Index (dash symbol)” value in series [1] was “—”.
For the compound `C=CC(=O)OCCOc1c(-c2cccc3c2sc2ccccc23)cc(-c2cccc3c2sc2ccccc23)cc1-c1cccc2c1sc1ccccc12` [Compound R-3, reference compound], the “Refractive Index (dash symbol)” value in series [1] is listed as “—”.
`C=C(C)C(=O)OCCOCCNC(=O)OCCOc1c(-c2cc3ccccc3c3ccccc23)cc(-c2cc3ccccc3c3ccccc23)cc1-c1cc2ccccc2c2ccccc12` [Compound M-9]: the “Refractive Index” value in series [1] is 1.6975. Further, the “Storage Stability” value in series [2] is given as “◯”. Further, the Solubility entry in series [3] was “◯”.
Regarding `C=CC(=O)OCCNC(=O)Oc1c(-c2cccc3c2sc2ccccc23)cc(-c2cccc3c2sc2ccccc23)cc1-c1cccc2c1sc1ccccc12` [Compound M-3], the “Refractive Index” value in series [1] was 1.6891. In series [2], the “Storage Stability” value was “◯”. In series [3], the Solubility result is on record as “◯”.
Regarding `C=C(C)C(=O)OCCNC(=O)Oc1c(-c2cccc3c2sc2ccccc23)cc(-c2cccc3c2sc2ccccc23)cc1-c1cccc2c1sc1ccccc12` [Compound M-1], the “Refractive Index” value in series [1] was 1.6818. The “Storage Stability” value in series [2] was “◯”. Also, in series [3], the Solubility result is “◯”.
Regarding `C=CC(=O)OCCOc1c(-c2cc3ccccc3c3ccccc23)cc(-c2cc3ccccc3c3ccccc23)cc1-c1cc2ccccc2c2ccccc12` [Compound M-10], the “Refractive Index” value in series [1] is 1.7323. Besides, the “Storage Stability” value in series [2] is “◯”. The Solubility result in series [3] was “◯”.
`C=CC(=O)OCCCOc1c(-c2cc3ccccc3c3ccccc23)cc(-c2cc3ccccc3c3ccccc23)cc1-c1cc2ccccc2c2ccccc12` [Compound M-11]: the “Refractive Index” value in series [1] is recorded as 1.7316. The “Storage Stability” value in series [2] is recorded as “◯”. In addition, the Solubility result in series [3] is “◯”.
Consider `C=CC(=O)OCCNC(=O)Oc1ccc(-c2cccc3c2sc2ccccc23)cc1-c1cccc2c1sc1ccccc12` [Compound R-1, reference compound], for which, in series [1], the “Refractive Index” value was 1.6762. For the same compound, the “Storage Stability” value in series [2] is “Δ”.
For the compound `C=CC(=O)OCCOc1ccc(C2(c3ccc(OCCOC(=O)C=C)cc3)c3ccccc3-c3ccccc32)cc1` [9,9-bis[4-(2-acryloyloxyethoxy)phenyl]fluorene], the Refractive Index result in series [4] was “about 1.62”.
Turning to `C=C(C)C(=O)OCCNC(=O)Oc1c(-c2ccc3ccccc3c2)cc(-c2ccc3ccccc3c2)cc1-c1ccc2ccccc2c1` [Compound M-5], the “Refractive Index” value in series [1] is reported as 1.6798. Besides, in series [2], the “Storage Stability” value is “◯”. Also, the Solubility result in series [3] was “◯”.
In the case of `C=CC(=O)OCCNC(=O)OCCOc1c(-c2cc3ccccc3c3ccccc23)cc(-c2cc3ccccc3c3ccccc23)cc1-c1cc2ccccc2c2ccccc12` [Compound M-7], the “Refractive Index” value in series [1] is 1.7104. In series [2], the “Storage Stability” value is listed as “◯”. Further, the Solubility entry in series [3] is on record as “◯”.
As for `C=C(C)C(=O)OCCNC(=O)OCCOc1c(-c2cc3ccccc3c3ccccc23)cc(-c2cc3ccccc3c3ccccc23)cc1-c1cc2ccccc2c2ccccc12` [Compound M-8], the “Refractive Index” value in series [1] is given as 1.7042. Also, the “Storage Stability” value in series [2] is listed as “◯”. The Solubility result in series [3] is reported as “◯”.
For `C=CC(=O)Oc1c(-c2cccc3c2sc2ccccc23)cc(-c2cccc3c2sc2ccccc23)cc1-c1cccc2c1sc1ccccc12` [Compound R-2, reference compound], the “Refractive Index” value in series [1] is reported as 1.7056. In series [2], the “Storage Stability” value is reported as “Δ”.
Turning to `C=C(C)C(=O)OCCNC(=O)Oc1c(-c2cc3ccccc3c3ccccc23)cc(-c2cc3ccccc3c3ccccc23)cc1-c1cc2ccccc2c2ccccc12` [Compound M-2], the “Refractive Index” value in series [1] was 1.6898. The “Storage Stability” value in series [2] is given as “◯”. In addition, in series [3], the Solubility result was “◯”.
Turning to `C=C(C)C(=O)OCCOCCNC(=O)Oc1c(-c2cc3ccccc3c3ccccc23)cc(-c2cc3ccccc3c3ccccc23)cc1-c1cc2ccccc2c2ccccc12` [Compound M-6], the “Refractive Index” value in series [1] was 1.7013. Further, the “Storage Stability” value in series [2] is listed as “◯”. Besides, the Solubility result in series [3] was “◯”.
